Experimental data published in patent US10131652B2, “Pyrimidinyloxy benzene derivatives as herbicides” (E. I. DU PONT DE NEMOURS AND COMPANY, priority 2014, dated 2018).
Like-named read-outs stand apart in the source and are kept apart here.

Key:
Assay in all cases: Test E pre-/postemergence plant response
Type in all cases: in vivo
[1] = test system: winter wheat (Triticum aestivum); conditions: scale 0 to 100, read-out: Plant response rating, Wheat, Winter; for plant injury at 16 g/ha: 16 g ai/ha; for plant injury at 62 g/ha: 62 g ai/ha; for plant injury at 125 g/ha: 125 g ai/ha
How it was run: (§1)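 Visual scores on a 0–100 scale (100 = complete control) were assigned against untreated controls 7–21 days after treatment in a controlled environment. Compounds, formulated with solvent plus surfactant, were applied to pre-emergence silt-loam sowings or to 1- to 4-leaf plants (2–18 cm) in potting medium.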

[2] = test system: blackgrass (Alopecurus myosuroides); conditions: scale 0 to 100, read-out: Plant response rating, Blackgrass; for pest or weed control at 16 g/ha: 16 g ai/ha; for pest or weed control at 31 g/ha: 31 g ai/ha; for pest or weed control at 62 g/ha: 62 g ai/ha; for pest or weed control at 125 g/ha: 125 g ai/ha
How it was run: as §1

[3] = test system: spring barley (Hordeum vulgare); conditions: for plant injury at 16 g/ha: 16 g ai/ha; for plant injury at 31 g/ha: 31 g ai/ha; for plant injury at 62 g/ha: 62 g ai/ha; for plant injury at 125 g/ha: 125 g ai/ha
How it was run: as §1

[4] = test system: pigweed (Amaranthus retroflexus); conditions: scale 0 to 100, read-out: Plant response rating, Pigweed; for pest or weed control at 16 g/ha: 16 g ai/ha; for pest or weed control at 31 g/ha: 31 g ai/ha; for pest or weed control at 62 g/ha: 62 g ai/ha; for pest or weed control at 125 g/ha: 125 g ai/ha
How it was run: as §1

[5] = test system: wild mustard (Sinapis arvensis); conditions: Brassica, scale 0 to 100, read-out: Plant response rating, Mustard, Wild; for pest or weed control at 16 g/ha: 16 g ai/ha; for pest or weed control at 31 g/ha: 31 g ai/ha; for pest or weed control at 62 g/ha: 62 g ai/ha; for pest or weed control at 125 g/ha: 125 g ai/ha
How it was run: as §1

[6] = test system: bluegrass (annual bluegrass, Poa annua); conditions: scale 0 to 100, read-out: Plant response rating, Bluegrass; for pest or weed control at 16 g/ha: 16 g ai/ha; for pest or weed control at 31 g/ha: 31 g ai/ha; for pest or weed control at 62 g/ha: 62 g ai/ha; for pest or weed control at 125 g/ha: 125 g ai/ha
How it was run: as §1

[7] = test system: wild radish (Raphanus raphanistrum); conditions: scale 0 to 100, read-out: Plant response rating, Radish, Wild; for pest or weed control at 16 g/ha: 16 g ai/ha; for pest or weed control at 31 g/ha: 31 g ai/ha; for pest or weed control at 62 g/ha: 62 g ai/ha; for pest or weed control at 125 g/ha: 125 g ai/ha
How it was run: as §1

[8] = test system: speedwell (bird's-eye speedwell, Veronica persica); conditions: scale 0 to 100, read-out: Plant response rating, Speedwell; for pest or weed control at 16 g/ha: 16 g ai/ha; for pest or weed control at 62 g/ha: 62 g ai/ha; for pest or weed control at 125 g/ha: 125 g ai/ha
How it was run: as §1

kochia (Kochia scoparia) = conditions: Bassia scoparia, scale 0 to 100, read-out: Plant response rating, Kochia; for pest or weed control at 16 g/ha: 16 g ai/ha; for pest or weed control at 31 g/ha: 31 g ai/ha; for pest or weed control at 62 g/ha: 62 g ai/ha; for pest or weed control at 125 g/ha: 125 g ai/ha
How it was run: as §1

[9] = test system: lambsquarters (Chenopodium album); conditions: scale 0 to 100, read-out: Plant response rating, Lambsquarters; for pest or weed control at 16 g/ha: 16 g ai/ha; for pest or weed control at 31 g/ha: 31 g ai/ha; for pest or weed control at 62 g/ha: 62 g ai/ha; for pest or weed control at 125 g/ha: 125 g ai/ha
How it was run: as §1

[10] = test system: Italian ryegrass (Lolium multiflorum); conditions: scale 0 to 100, read-out: Plant response rating, Ryegrass, Italian; for pest or weed control at 16 g/ha: 16 g ai/ha; for pest or weed control at 31 g/ha: 31 g ai/ha; for pest or weed control at 62 g/ha: 62 g ai/ha; for pest or weed control at 125 g/ha: 125 g ai/ha
How it was run: as §1

[11] = post-emergence, 31 g ai/ha, Postemergence
[12] = post-emergence, Postemergence, scale 0 to 100, read-out: Plant response rating, Barley, Spring
[13] = pre-emergence, Preemergence, scale 0 to 100, read-out: Plant response rating, Barley, Spring

SMILES: FC(F)c1cc(-c2ccccc2Oc2ncc(Br)cn2)no1 [Compound 62, 5-bromo-2-[2-[5-(difluoromethyl)-3-isoxazolyl]phenoxy]pyrimidine]
- plant injury at 16 g/ha ([1]; post-emergence, Postemergence): 10%
- plant injury at 31 g/ha [1, 11]: 20%
- plant injury at 62 g/ha ([1]; post-emergence, Postemergence): 30%
- plant injury at 125 g/ha ([1]; post-emergence, Postemergence): 35%
- plant injury at 16 g/ha ([1]; pre-emergence, Preemergence): 0%
- plant injury at 62 g/ha ([1]; pre-emergence, Preemergence): 0%
- plant injury at 125 g/ha ([1]; pre-emergence, Preemergence): 5%
- pest or weed control at 16 g/ha ([2]; post-emergence, Postemergence): 15%
- pest or weed control at 31 g/ha ([2]; post-emergence, Postemergence): 30%
- pest or weed control at 62 g/ha ([2]; post-emergence, Postemergence): 40%
- pest or weed control at 125 g/ha ([2]; post-emergence, Postemergence): 75%
- pest or weed control at 16 g/ha ([2]; pre-emergence, Preemergence): 5%
- pest or weed control at 31 g/ha ([2]; pre-emergence, Preemergence): 15%
- pest or weed control at 62 g/ha ([2]; pre-emergence, Preemergence): 15%
- pest or weed control at 125 g/ha ([2]; pre-emergence, Preemergence): 65%
- plant injury at 16 g/ha [3, 12]: 10%
- plant injury at 31 g/ha [3, 12]: 15%
- plant injury at 62 g/ha [3, 12]: 20%
- plant injury at 125 g/ha ([3]; post-emergence, Postemergence, scale 0 to 100 (0 no effect, 100 complete control), read-out: Plant response rating, Barley, Spring): 25%
- plant injury at 16 g/ha [3, 13]: 0%
- plant injury at 31 g/ha [3, 13]: 0%
- plant injury at 62 g/ha [3, 13]: 0%
- plant injury at 125 g/ha [3, 13]: 0%
- pest or weed control at 16 g/ha ([4]; post-emergence, Postemergence): 90%
- pest or weed control at 31 g/ha ([4]; post-emergence, Postemergence): 90%
- pest or weed control at 62 g/ha ([4]; post-emergence, Postemergence): 95%
- pest or weed control at 125 g/ha ([4]; post-emergence, Postemergence): 95%
- pest or weed control at 16 g/ha ([4]; pre-emergence, Preemergence): 95%
- pest or weed control at 31 g/ha ([4]; pre-emergence, Preemergence): 100%
- pest or weed control at 62 g/ha ([4]; pre-emergence, Preemergence): 100%
- pest or weed control at 125 g/ha ([4]; pre-emergence, Preemergence): 100%
- pest or weed control at 16 g/ha ([5]; post-emergence, Postemergence): 75%
- pest or weed control at 31 g/ha ([5]; post-emergence, Postemergence): 100%
- pest or weed control at 62 g/ha ([5]; post-emergence, Postemergence): 100%
- pest or weed control at 125 g/ha ([5]; post-emergence, Postemergence): 100%
- pest or weed control at 16 g/ha ([5]; pre-emergence, Preemergence): 25%
- pest or weed control at 31 g/ha ([5]; pre-emergence, Preemergence): 80%
- pest or weed control at 62 g/ha ([5]; pre-emergence, Preemergence): 95%
- pest or weed control at 125 g/ha ([5]; pre-emergence, Preemergence): 100%
- pest or weed control at 16 g/ha ([6]; post-emergence, Postemergence): 10%
- pest or weed control at 31 g/ha ([6]; post-emergence, Postemergence): 35%
- pest or weed control at 62 g/ha ([6]; post-emergence, Postemergence): 55%
- pest or weed control at 125 g/ha ([6]; post-emergence, Postemergence): 60%
- pest or weed control at 16 g/ha ([6]; pre-emergence, Preemergence): 0%
- pest or weed control at 31 g/ha ([6]; pre-emergence, Preemergence): 5%
- pest or weed control at 62 g/ha ([6]; pre-emergence, Preemergence): 10%
- pest or weed control at 125 g/ha ([6]; pre-emergence, Preemergence): 75%
- pest or weed control at 16 g/ha ([7]; post-emergence, Postemergence): 65%
- pest or weed control at 31 g/ha ([7]; post-emergence, Postemergence): 70%
- pest or weed control at 62 g/ha ([7]; post-emergence, Postemergence): 90%
- pest or weed control at 125 g/ha ([7]; post-emergence, Postemergence): 100%
- pest or weed control at 16 g/ha ([7]; pre-emergence, Preemergence): 25%
- pest or weed control at 31 g/ha ([7]; pre-emergence, Preemergence): 40%
- pest or weed control at 62 g/ha ([7]; pre-emergence, Preemergence): 95%
- pest or weed control at 125 g/ha ([7]; pre-emergence, Preemergence): 100%
- pest or weed control at 16 g/ha ([8]; post-emergence, Postemergence): 70%
- pest or weed control at 31 g/ha [8, 11]: 95%
- pest or weed control at 62 g/ha ([8]; post-emergence, Postemergence): 100%
- pest or weed control at 125 g/ha ([8]; post-emergence, Postemergence): 100%
- pest or weed control at 16 g/ha ([8]; pre-emergence, Preemergence): 95%
- pest or weed control at 62 g/ha ([8]; pre-emergence, Preemergence): 95%
- pest or weed control at 125 g/ha ([8]; pre-emergence, Preemergence): 100%
- pest or weed control at 16 g/ha (kochia (Kochia scoparia); post-emergence, Postemergence): 65%
- pest or weed control at 31 g/ha (kochia (Kochia scoparia); post-emergence, Postemergence): 75%
- pest or weed control at 62 g/ha (kochia (Kochia scoparia); post-emergence, Postemergence): 90%
- pest or weed control at 125 g/ha (kochia (Kochia scoparia); post-emergence, Postemergence): 95%
- pest or weed control at 16 g/ha (kochia (Kochia scoparia); pre-emergence, Preemergence): 0%
- pest or weed control at 31 g/ha (kochia (Kochia scoparia); pre-emergence, Preemergence): 5%
- pest or weed control at 62 g/ha (kochia (Kochia scoparia); pre-emergence, Preemergence): 85%
- pest or weed control at 125 g/ha (kochia (Kochia scoparia); pre-emergence, Preemergence): 100%
- pest or weed control at 16 g/ha ([9]; post-emergence, Postemergence): 75%
- pest or weed control at 31 g/ha ([9]; post-emergence, Postemergence): 95%
- pest or weed control at 62 g/ha ([9]; post-emergence, Postemergence): 95%
- pest or weed control at 125 g/ha ([9]; post-emergence, Postemergence): 95%
- pest or weed control at 16 g/ha ([9]; pre-emergence, Preemergence): 35%
- pest or weed control at 31 g/ha ([9]; pre-emergence, Preemergence): 85%
- pest or weed control at 62 g/ha ([9]; pre-emergence, Preemergence): 95%
- pest or weed control at 125 g/ha ([9]; pre-emergence, Preemergence): 100%
- pest or weed control at 16 g/ha ([10]; post-emergence, Postemergence): 10%
- pest or weed control at 31 g/ha ([10]; post-emergence, Postemergence): 20%
- pest or weed control at 62 g/ha ([10]; post-emergence, Postemergence): 30%
- pest or weed control at 125 g/ha ([10]; post-emergence, Postemergence): 35%
- pest or weed control at 16 g/ha ([10]; pre-emergence, Preemergence): 0%
- pest or weed control at 31 g/ha ([10]; pre-emergence, Preemergence): 0%
- pest or weed control at 62 g/ha ([10]; pre-emergence, Preemergence): 15%
- pest or weed control at 125 g/ha ([10]; pre-emergence, Preemergence): 25%
